Test results published in patent US20100016275A1, “NOVEL COMPOUND 395” (priority 2008, published 2010).
Where two headings read alike, the source gives them in different places.

Columns and labels:
[1] = Human hepatic intrinsic clearance (CLint) assay in human hepatocytes; type: in vitro ADME; conditions: human, human hepatocytes in suspension, pH 7.4, human hepatocytes
Source text: The hepatic metabolic component of human clearance is predicted from scaled in vitro intrinsic clearance (CLint) data from human hepatocytes (see Chem Biol Interact. 2007, 168(1), 2-15) and from the extent of human blood binding, primarily due to plasma protein binding. The well stirred model of the liver is a model for predicting blood clearance in the liver from intrinsic clearance (CLint) determined using hepatocytes. (see Drug Metab Dispos. 2005, 33(9), 1304-11) The model is usually written as:
Human Hepatic Intrinsic Clearance (CLint) Assay
For the majority of drugs, a large component of their plasma clearance is contributed by hepatic metabolism. Intrinsic clearance (CLint) is a measure of the potential of a compound to undergo metabolism and can be related to hepatic clearance in vivo from a consideration of plasma protein binding and liver blood flow. Therefore, CLint may be used as an index of the relative metabolic stability of compounds within a project and compared with other external probe substrates. Furthermore, the measurement of CLint in vitro within a research project, where hepatic metabolic clearance is known to be an issue, may be a useful means of understanding the different pharmacokinetic behaviour of the compounds in vivo.
This following description outlines a method for estimating intrinsic clearance (CLint) from human hepatocyte incubations using suspension buffer containing no HSA (human serum albumin) and maintaining physiological conditions of pH 7.4.
Hepatocytes were prepared by a two-step in situ collagenase perfusion method of a portion of the human liver, suspended in protein free buffer (see below) and stored on ice, prior to incubation.
This method is based on the procedure of Seglen (Preparation of rat liver cells. I. Effect of Ca^2+ on enzymatic dispersion of isolated, perfused liver. Exptl. Cell Res., 1972, 74, p450 and preparation of isolated rat liver cells. Methods Cell Biol., 1976, 13, p 29) which itself was developed from the one step procedure of Berry and Friend (High-yield preparation of isolated rat liver parenchymal cells. J. Cell Biol., 1969, 43, p 506).
Suspension medium: 2.34 g Na HEPES, 2.0 g HSA fraction V, 0.4 g D-fructose, DMEM (1 L powder equivalent, Sigma; w/1 g.1^−1 glucose, w/Na pyruvate, w/o NaHCO3, w/o phenol red), made up to 1 L with Milli-Q water, pH to 7.4 with 1 M HCl. (Protein free suspension buffer is made omitting the 2.0 g HSA fraction V)
The capsule of a liver which has been perfused with digestion medium was cut open and the cells gently teased out into the medium. The cells were then passed through a mesh (approximately 250 μM) into a beaker containing 50 ml suspension medium. The mesh was rinsed through into the beaker with further suspension buffer to a final volume of 100 ml. The suspension was divided between two plastic 50 mL centrifuge tubes (pre-cooled on ice) and centrifuged at 50×g for 2 min at 4° C. The supernatants were decanted and the pellets re-suspended in protein free suspension buffer to the original volume. The centrifugation step was repeated and each pellet re-suspended in approximately 10 ml protein free suspension buffer. The suspensions were combined and the volume made up to 50 mL with protein free suspension buffer.
An aliquot of cell suspension (0.2 mL) was diluted with 0.2 ml protein free suspension buffer. To the diluted cells was added 0.2 mL trypan blue solution (0.4% w/v) followed by gentle mixing. After 1 min, a pasteur pipette was used to withdraw a sample and fill an Improved Neubauer Counting Chamber by capillary action. The cells were then counted (central square only) using an inverted microscope, viable cells being able to exclude the dye and non-viable cells being stained. The percentage of viable cells in the preparation was calculated thus: […]

[2] = Measurement of plasma protein binding (PPB) by equilibrium dialysis; type: in vitro ADME, human; conditions: human, plasma, pH 7.4, human plasma, equilibrium dialysis, 37° C., pH 7.4; read-out: Human plasma protein binding PPB (% free)
Description: (§1) Measurement of Plasma Protein Binding (PPB)
(§2) The extent of binding of a drug to plasma proteins is a crucial factor in determining its in vivo potency and pharmacokinetics. The method used for determining the extent of plasma protein binding involves equilibrium dialysis of the compound between plasma and buffer at 37° C. The concentrations of compound in the plasma and buffer are then determined using high pressure liquid chromatography (HPLC) with mass spectroscopy (MS) detection. The dialysis method involves the use of mixtures of up to 10 compounds simultaneously. It has been shown that at the concentrations used in the assay, there is no significant difference in the results when compounds are run singly or in mixtures.
(§3) Membranes (molecular weight cut-off 5000) were first prepared by soaking in the dialysis buffer for a minimum of 1 hour. The dialysis membranes were then mounted into the dialysis cells.
(§4) Stock solutions of compounds in dimethylsulphoxide (DMSO) were prepared. This, and all subsequent liquid handling steps, were normally done using a Tecan liquid handling robot. Mixtures of up to five compounds were used. The concentration of each compound in a mixture was normally 1 mM. The mixtures were chosen such that each mixture contains compounds that all have at least a 5 unit difference in molecular weight from one another.
(§5) Frozen plasma (EDTA anticoagulant) was normally used for the human plasma binding experiment. The pH of the plasma was adjusted to 7.4 using 1 M HCl immediately before use.
(§6) The stock DMSO solution of compounds (7.5 μL) was then added to the dialysis cells along with plasma (750 μl). This was done in duplicate for each mixture. This gave a 1% DMSO in plasma solution with each compound at a concentration of 10 μM (if the stock solution was the standard 1 mM). The dialysis cells were then sealed, secured in a Dianorm rotator unit and equilibrated for 18 hours at 37° C. While the dialysis cells were being equilibrated, the DMSO stock solutions were used for generating optimised HPLC/MS methods for use in the final analysis of the plasma and buffer samples.
(§7) After equilibration, the cells were opened and a Tecan liquid handling robot was used to remove aliquots from the plasma and buffer sides of each of the dialysis cells. Blank plasma was then added to the buffer samples and buffer added to the plasma samples such that each sample was in a matrix of 6-fold diluted plasma. Standards were then prepared from the DMSO stock solutions and blank 6-fold diluted plasma. The concentrations of the four standards were normally 50 nM, 150 nM, 500 nM and 2500 nM.
(§8) The samples and standards were then analysed using HPLC with MS detection, which allows deconvolution of the mixtures of compounds. The HPLC method involved a forward flushing column switching technique that allows direct injection of the diluted plasma.
(§9) The chromatograms were processed using MassLynx software that automatically i 5 calculates a calibration curve for each compound in a mixture and then interpolates the concentrations of buffer and plasma samples. These concentrations still need corrections for the dilution of the plasma. The percentage bound was calculated from the MassLynx data using the following equation: […]
(§10) The factor of 1.2 in the numerator accounts for the small dilution of the aqueous samples with plasma. The factor of 6 in the denominator serves to correct for the 6-fold dilution of the plasma samples with buffer.
(§11) The % free (100-% bound) for each compound was calculated from the concentration data, and then recorded.

human plasma proteins = experiment: as above; type: in vitro ADME; conditions: human plasma; for Human plasma protein binding PPB (% free): equilibrium dialysis, 37° C., pH 7.4
Description: as §1, §2, §3, §4, §5, §6, §7, §8, §9, §10, §11

[3] = protein free suspension buffer, pH 7.4, 37° C., read-out: Human hepatocyte Intrinsic-clearance assay CLint
[4] = unit inferred, read-out: hepatic intrinsic clearance (Clint)

hepatocyte CLint at 1 µM [1, 3] | hepatocyte CLint at 1 µM [1, 4] | fraction unbound at 18 h, 10 µM [2] | free fraction in human plasma (in words) (human plasma proteins) | Human plasma protein binding PPB (% free) (human plasma proteins) | SMILES
2.1 µL/min/1e6 cells | 2.1 µL/min/1e6 cells | 0.019 | favourable free fraction in human plasma | – | C[C@@H](Nc1cc(NS(=O)(=O)N2CCC2)nc(SCc2cccc(F)c2F)n1)[C@@H](O)CO [Example 1, N-(2-[(2,3-difluorobenzyl)thio]-6-{[(1R,2R)-2,3-dihydroxy-1-methylpropyl]amino}pyrimidin-4-yl)azetidine-1-sulfonamide]
2.3 µL/min/1e6 cells | 2.3 µL/min/1e6 cells | – | – | – | CS(=O)(=O)Nc1cc(NC(CO)CO)nc(SCc2ccccc2)n1 [Example 21]
5.1 µL/min/1e6 cells | – | 0.01 | – | – | Cc1cccc(CSc2nc(N[C@H](C)CO)cc(NS(C)(=O)=O)n2)c1F [Example 39]
9 µL/min/1e6 cells | – | < 0.002 | – | – | Cc1cccc(CSc2nc(N[C@H](C)CO)cc(NS(=O)(=O)N3CCC3)n2)c1F [Example 40]
12 µL/min/1e6 cells | – | – | – | 0.6 % free | Cc1ccc(CSc2nc(N[C@H](C)CO)cc(NS(=O)(=O)N3CCC3)n2)c(F)c1C [Example 41]
– | – | – | – | <0.2 % free | Cc1ccc(CSc2nc(N[C@H](C)CO)cc(NS(=O)(=O)N3CCC3)n2)c(F)c1C [Example 42]
